Consider four molecules from publication PMC3295651, “Delineation of the Pasteurellaceae-specific GbpA-family of glutathione-binding proteins” (BMC Biochemistry, 2011).

Holding throughout (test): Thermofluor thermal shift (Sypro orange)
Common to all, as to assay type: binding
A general note: DSF heats the sample and reads unfolding from a dye or from intrinsic fluorescence.

The target in one assay is T1, GbpAHi (Haemophilus influenzae, UniProt P33950).
T1 construct: gene hbpA; soluble non-lipidated form; leader replaced by PelB; his-tag
T1 sequence (P33950 19-547): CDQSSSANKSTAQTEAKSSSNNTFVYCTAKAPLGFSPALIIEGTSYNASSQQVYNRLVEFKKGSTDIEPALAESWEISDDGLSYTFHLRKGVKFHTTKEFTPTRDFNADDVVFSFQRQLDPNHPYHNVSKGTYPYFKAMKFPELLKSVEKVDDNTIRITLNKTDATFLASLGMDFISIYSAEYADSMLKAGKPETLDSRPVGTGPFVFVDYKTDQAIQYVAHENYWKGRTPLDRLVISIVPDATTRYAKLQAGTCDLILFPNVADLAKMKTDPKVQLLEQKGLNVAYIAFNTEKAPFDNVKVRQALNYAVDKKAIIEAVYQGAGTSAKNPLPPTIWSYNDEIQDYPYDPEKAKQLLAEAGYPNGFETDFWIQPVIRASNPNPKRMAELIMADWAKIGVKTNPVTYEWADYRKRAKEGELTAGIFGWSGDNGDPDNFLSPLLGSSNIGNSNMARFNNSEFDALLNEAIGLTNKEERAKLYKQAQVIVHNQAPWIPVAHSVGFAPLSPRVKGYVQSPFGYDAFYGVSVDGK
An excerpt: Thermofluor thermal shift (Sypro orange) on GbpAHi

For the next assay, the target named is T2, hbpA (Actinobacillus pleuropneumoniae, UniProt A3N3U8, C22M).
T2 construct: soluble non-lipidated form; mature start at position 22; C-terminal his-tag; E. coli, pET20b
T2 sequence (A3N3U8 22-545 C22M): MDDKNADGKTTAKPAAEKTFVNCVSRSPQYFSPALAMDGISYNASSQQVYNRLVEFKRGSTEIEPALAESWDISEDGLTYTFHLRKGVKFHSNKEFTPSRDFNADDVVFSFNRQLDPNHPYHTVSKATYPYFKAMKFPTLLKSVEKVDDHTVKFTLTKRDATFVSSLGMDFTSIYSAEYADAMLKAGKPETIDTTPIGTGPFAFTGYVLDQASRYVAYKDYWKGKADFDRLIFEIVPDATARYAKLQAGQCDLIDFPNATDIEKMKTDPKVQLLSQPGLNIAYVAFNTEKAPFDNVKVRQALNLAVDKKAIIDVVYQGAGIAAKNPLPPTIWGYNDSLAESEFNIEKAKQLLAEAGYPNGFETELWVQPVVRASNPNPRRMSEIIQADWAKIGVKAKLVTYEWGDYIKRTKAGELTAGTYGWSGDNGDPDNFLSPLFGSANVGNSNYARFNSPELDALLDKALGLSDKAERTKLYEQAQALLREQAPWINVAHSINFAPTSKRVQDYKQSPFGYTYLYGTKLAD
The following applies: read-out: GbpAAp. An excerpt:
Thermofluor thermal shift (Sypro orange) on GbpAAp

For another assay, the target named is T3, GbpAHp (Glaesserella parasuis, UniProt B8F653).
T3 construct: gene hbpA; non-lipoprotein; leader replaced by PelB; his-tag
T3 sequence (B8F653 23-531): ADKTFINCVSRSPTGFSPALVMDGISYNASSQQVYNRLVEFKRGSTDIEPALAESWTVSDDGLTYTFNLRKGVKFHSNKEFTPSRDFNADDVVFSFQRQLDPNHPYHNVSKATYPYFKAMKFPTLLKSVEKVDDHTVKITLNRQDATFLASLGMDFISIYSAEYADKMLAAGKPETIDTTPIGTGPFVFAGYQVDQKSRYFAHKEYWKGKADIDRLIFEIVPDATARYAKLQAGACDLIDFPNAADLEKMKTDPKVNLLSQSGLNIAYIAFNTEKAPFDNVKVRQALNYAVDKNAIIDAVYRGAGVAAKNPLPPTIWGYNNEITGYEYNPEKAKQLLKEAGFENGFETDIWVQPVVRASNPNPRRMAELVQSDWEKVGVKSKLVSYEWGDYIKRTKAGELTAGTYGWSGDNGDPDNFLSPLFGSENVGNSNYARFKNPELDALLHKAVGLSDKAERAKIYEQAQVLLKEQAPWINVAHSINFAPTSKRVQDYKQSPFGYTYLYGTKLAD
An excerpt:
Thermofluor thermal shift (Sypro orange) on GbpAHp

As to `N[C@@H](CCC(=O)N[C@@H](CS)C(=O)NCC(=O)O)C(=O)O` [GSH], the ΔTm at 1000 µM at GbpAHi is 12.5 °C.

For the molecule `CSC[C@H](NC(=O)CC[C@H](N)C(=O)O)C(=O)NCC(=O)O` [S-methylglutathione], the ΔTm at 1000 µM on GbpAHi turned out to be 10.5 °C.

With `N[C@@H](CCC(=O)N[C@@H](CSN=O)C(=O)NCC(=O)O)C(=O)O` [S-nitrosoglutathione], the ΔTm at 1000 µM on hbpA came out at 6.5 °C; at GbpAHp, 9.5 °C; at GbpAHi, 7 °C.

As for `N[C@@H](CCC(=O)N[C@@H](CSSC[C@H](N)C(=O)O)C(=O)NCC(=O)O)C(=O)O` [glutathione cysteine disulfide], the ΔTm at 1000 µM was determined as 6 °C at hbpA, 7 °C at GbpAHp and 10 °C at GbpAHi.
